# Results from ChEMBL document CHEMBL1157418, “Synthesis and antitumor activity evaluations of albumin-binding prodrugs of CC-1065 analog” (Bioorg Med Chem, 2008).
# Calls of active or inactive are those of the source. The rule behind the calls is not given here.
# How the values were obtained:
# L1210 [1] = assay: Antitumor activity against mouse L1210 cells; assay type: functional, cell-based
# L1210 [2] = assay: Cell cycle arrest in mouse L1210 cells by accumulation at S phase at 0.1 ug/ml after 24 hrs by flow cytometry; assay type: functional, cell-based
# L1210 [3] = assay: Cell cycle arrest in mouse L1210 cells by accumulation at G2/M phase at 0.1 ug/ml after 24 hrs by flow cytometry; assay type: functional, cell-based
# MC-38 [4] = assay: Antitumor activity in BDF1 mouse bearing colon 38 cells assessed as tumor growth inhibition at 70 mg/kg, iv daily 4 times for 3 days; assay type: functional; conditions: MC-38, 72 h, read-out: TGI
# MC-38 [5] = assay: Antitumor activity in BDF1 mouse bearing colon 38 cells assessed as maximum weight loss at 70 mg/kg, iv daily 4 times for 3 days; assay type: functional
# MC-38 [6] = assay: Antitumor activity in BDF1 mouse bearing colon 38 cells assessed as cell death at 70 mg/kg, iv daily 4 times for 3 days; assay type: functional
# MC-38 [7] = assay: Antitumor activity in BDF1 mouse bearing colon 38 cells assessed as tumor growth inhibition at 100 mg/kg, iv daily 4 times for 3 days; assay type: functional; conditions: MC-38, 72 h, read-out: TGI
# MC-38 [8] = assay: Antitumor activity in BDF1 mouse bearing colon 38 cells assessed as maximum weight loss at 100 mg/kg, iv daily 4 times for 3 days; assay type: functional
# MC-38 [9] = assay: Antitumor activity in BDF1 mouse bearing colon 38 cells assessed as cell death at 100 mg/kg, iv daily 4 times for 3 days; assay type: functional
# SK-OV-3 [10] = assay: Anticancer activity in CD1 mouse xenografted with human SKOV3 cells assessed as weight change at 25 mg/kg, ip; assay type: functional; conditions: route intraperitoneal
# SK-OV-3 [11] = assay: Anticancer activity in CD1 mouse xenografted with human SKOV3 cells assessed as tumor growth inhibition at 25 mg/kg, ip; assay type: functional; conditions: SK-OV-3, ip, route intraperitoneal, read-out: TGI
# L1210 [12] = assay: Antitumor activity against mouse L1210 cells assessed as inhibition of [3H]thymidine uptake after 48 hrs; assay type: functional, cell-based
# SK-OV-3 [13] = assay: Antitumor activity against human SKOV3 cells assessed as inhibition of [3H]thymidine uptake after 72 hrs; assay type: functional, cell-based
# MC-38 [14] = assay: Antitumor activity in BDF1 mouse bearing colon 38 cells assessed as tumor growth inhibition at 0.05 mg/kg, iv daily 4 times for 3 days; assay type: functional; conditions: MC-38, 72 h, read-out: TGI
# MC-38 [15] = assay: Antitumor activity in BDF1 mouse bearing colon 38 cells assessed as maximum weight loss at 0.05 mg/kg, iv daily 4 times for 3 days; assay type: functional
# L1210 [16] = assay: Cell cycle arrest in mouse L1210 cells by increase in accumulation at G2/M phase at 0.01-0.1 ug/mL after 24 hrs by flow cytometry; assay type: functional, cell-based
# L1210 [17] = assay: Cell cycle arrest in mouse L1210 cells by increase in accumulation at S phase at 0.1 ug/mL after 3 hrs by flow cytometry relative to control; assay type: functional, cell-based
# L1210 [18] = assay: Cell cycle arrest in mouse L1210 cells by increase in accumulation at S phase at 0.1 ug/mL after 12 hrs by flow cytometry; assay type: functional, cell-based
# MC-38 [19] = assay: Antitumor activity in BDF1 mouse bearing colon 38 cells assessed as cell death at 0.05 mg/kg, iv daily 4 times for 3 days; assay type: functional
# L1210 [20] = assay: Cell cycle arrest in mouse L1210 cells by decrease in accumulation at G1 phase at 0.01-0.1 ug/mL after 24 hrs by flow cytometry; assay type: functional, cell-based
# L1210 [21] = assay: Cell cycle arrest in mouse L1210 cells by increase in accumulation at S phase at 0.01-0.1 ug/mL after 24 hrs by flow cytometry; assay type: functional, cell-based
# L1210 [22] = assay: Antitumor activity in BDF1 mouse bearing mouse L1210 cells assessed as increase of life span at 0.4 mg/kg, iv; assay type: functional
# L1210 [23] = assay: Antitumor activity in BDF1 mouse bearing mouse L1210 cells assessed as increase of life span at 0.2 mg/kg, iv; assay type: functional
# L1210 [24] = assay: Antitumor activity in BDF1 mouse bearing mouse L1210 cells assessed as increase of life span at 0.1 mg/kg, iv; assay type: functional
# L1210 [25] = assay: Antitumor activity in BDF1 mouse bearing mouse L1210 cells assessed as increase of life span at 0.05 mg/kg, iv; assay type: functional
# MC-38 [26] = assay: Antitumor activity in BDF1 mouse bearing colon 38 cells assessed as tumor growth inhibition at 0.3 mg/kg, iv daily 4 times for 2 days; assay type: functional; conditions: MC-38, 48 h, read-out: TGI
# MC-38 [27] = assay: Antitumor activity in BDF1 mouse bearing colon 38 cells assessed as tumor growth inhibition at 0.15 mg/kg, iv daily 4 times for 3 days; assay type: functional; conditions: MC-38, 72 h, read-out: TGI
# MC-38 [28] = assay: Antitumor activity in BDF1 mouse bearing colon 38 cells assessed as maximum weight loss at 0.3 mg/kg, iv daily 4 times for 2 days; assay type: functional
# MC-38 [29] = assay: Antitumor activity in BDF1 mouse bearing colon 38 cells assessed as maximum weight loss at 0.15 mg/kg, iv daily 4 times for 3 days; assay type: functional
# MC-38 [30] = assay: Antitumor activity in BDF1 mouse bearing colon 38 cells assessed as cell death at 0.3 mg/kg, iv daily 4 times for 2 days; assay type: functional
# [31] = Antitumor activity in BALB/c mouse bearing JC cells assessed as maximum weight loss at 0.20 mg/kg, iv daily 4 times for 3 days; assay type: functional; conditions: dose 0.2 mg/kg
# MC-38 [32] = assay: Antitumor activity in BDF1 mouse bearing colon 38 cells assessed as cell death at 0.15 mg/kg, iv daily 4 times for 3 days; assay type: functional
# [33] = Antitumor activity in BALB/c mouse bearing JC cells assessed as tumor growth inhibition at 0.25 mg/kg, iv daily 4 times for 2 days; assay type: functional; conditions: 48 h, read-out: TGI
# [34] = Antitumor activity in BALB/c mouse bearing JC cells assessed as cell death at 0.25 mg/kg, iv daily 4 times for 2 days; assay type: functional
# [35] = Antitumor activity in BALB/c mouse bearing JC cells assessed as maximum weight loss at 0.25 mg/kg, iv daily 4 times for 2 days; assay type: functional
# [36] = Antitumor activity in BALB/c mouse bearing JC cells assessed as tumor growth inhibition at 0.20 mg/kg, iv daily 4 times for 3 days; assay type: functional; conditions: 72 h, read-out: TGI
# [37] = Antitumor activity in BALB/c mouse bearing JC cells assessed as cell death at 0.20 mg/kg, iv daily 4 times for 3 days; assay type: functional; conditions: dose 0.2 mg/kg
# [38] = Antitumor activity in BALB/c mouse bearing JC cells assessed as tumor growth inhibition at 0.16 mg/kg, iv daily 4 times for 3 days; assay type: functional; conditions: 72 h, read-out: TGI
# [39] = Antitumor activity in BALB/c mouse bearing JC cells assessed as cell death at 0.16 mg/kg, iv daily 4 times for 3 days; assay type: functional
# [40] = Antitumor activity in BALB/c mouse bearing JC cells assessed as maximum weight loss at 0.16 mg/kg, iv daily 4 times for 3 days; assay type: functional
# SK-OV-3 [41] = assay: Anticancer activity in CD1 mouse xenografted with human SKOV3 cells assessed as weight change at 0.13 mg/kg, iv; assay type: functional
# SK-OV-3 [42] = assay: Anticancer activity in CD1 mouse xenografted with human SKOV3 cells assessed as tumor growth inhibition at 0.13 mg/kg, iv; assay type: functional; conditions: read-out: TGI
# L1210 [43] = assay: Antitumor activity in BDF1 mouse bearing mouse L1210 cells assessed as increase of life span at 10 mg/kg, iv; assay type: functional
# L1210 [44] = assay: Cell cycle arrest in mouse L1210 cells by accumulation at G2/M phase at 1 ug/ml after 12 hrs by flow cytometry; assay type: functional, cell-based
# [45] = Antitumor activity in BALB/c mouse bearing JC cells assessed as tumor growth inhibition at 8.0 mg/kg, iv daily 4 times for 3 days; assay type: functional; conditions: 72 h, read-out: TGI
# [46] = Antitumor activity in BALB/c mouse bearing JC cells assessed as cell death at 8.0 mg/kg, iv daily 4 times for 3 days; assay type: functional
# [47] = Antitumor activity in BALB/c mouse bearing JC cells assessed as maximum weight loss at 8.0 mg/kg, iv daily 4 times for 3 days; assay type: functional
# SK-OV-3 [48] = assay: Anticancer activity in CD1 mouse xenografted with human SKOV3 cells assessed as weight change at 5 mg/kg, iv; assay type: functional
# SK-OV-3 [49] = assay: Anticancer activity in CD1 mouse xenografted with human SKOV3 cells assessed as tumor growth inhibition at 5 mg/kg, iv; assay type: functional; conditions: read-out: TGI
smiles,measurement,setting,value
CCCCCC(=O)O [HEXANOATE],IC50,L1210 [1],4.6 nM
CC/C=C\C/C=C\C/C=C\C/C=C\C/C=C\C/C=C\CCC(=O)O [DOCONEXENT],IC50,L1210 [1],13 nM
Cc1c[nH]c2c1[C@@]13C[C@@H]1CN(C(=O)c1cc4cc(NC(=O)c5cc6ccccc6o5)ccc4[nH]1)C3=CC2=O,Activity,L1210 [2],Active
same,Activity,L1210 [3],Active
O=c1[nH]cc(F)c(=O)[nH]1 [FLUOROURACIL],inhibition in vivo at 70 mg/kg,MC-38 [4],95%
same,Activity,MC-38 [5],-7%
same,LCK,MC-38 [6],1.1
CCc1c2c(nc3ccc(OC(=O)N4CCC(N5CCCCC5)CC4)cc13)C1CC3=C(COC(=O)[C@]3(O)CC)C(=O)N1C2 (stereo partly drawn),inhibition in vivo at 100 mg/kg,MC-38 [7],96%
same,Activity,MC-38 [8],-7%
same,LCK,MC-38 [9],1.7
CC(=O)O[C@H]1C(=O)[C@@]2(C)[C@H]([C@H](OC(=O)c3ccccc3)[C@]3(O)C[C@H](OC(=O)[C@H](O)[C@@H](NC(=O)c4ccccc4)c4ccccc4)C(C)=C1C3(C)C)[C@]1(OC(C)=O)CO[C@@H]1C[C@@H]2O [PACLITAXEL],Activity,SK-OV-3 [10],-1%
same,inhibition in vivo at 25 mg/kg,SK-OV-3 [11],22%
O=C(Nc1ccc2[nH]c(C(=O)N3C[C@@H](CCl)c4c3cc(O)c3ccccc43)cc2c1)c1cc2cc(F)ccc2[nH]1,IC50,L1210 [12],0.17 nM
same,IC50,SK-OV-3 [13],14 nM
same,inhibition in vivo at 0.05 mg/kg,MC-38 [14],76%
same,Activity,MC-38 [15],-7%
same,IC50,L1210 [1],0.29 nM
same,Activity,L1210 [16],Active
same,Activity,L1210 [17],Active
same,Activity,L1210 [18],Active
same,LCK,MC-38 [19],0.68
same,Activity,L1210 [2],Active
same,Activity,L1210 [3],Active
same,Activity,L1210 [20],Active
same,Activity,L1210 [21],Active
O=C(CCCCCN1C(=O)C=CC1=O)Oc1cc2c(c3ccccc13)[C@H](CCl)CN2C(=O)c1cc2cc(NC(=O)c3cc4cc(F)ccc4[nH]3)ccc2[nH]1,IC50,L1210 [12],25 nM
same,IC50,SK-OV-3 [13],34 nM
same,Activity,L1210 [22],133%
same,Activity,L1210 [23],107%
same,Activity,L1210 [24],51%
same,Activity,L1210 [25],40%
same,inhibition in vivo at 0.3 mg/kg,MC-38 [26],99%
same,inhibition in vivo at 0.15 mg/kg,MC-38 [27],99%
same,Activity,MC-38 [28],-25%
same,Activity,MC-38 [29],-10%
same,LCK,MC-38 [30],2.6
same,Activity,L1210 [16],Active
same,Activity,L1210 [17],Active
same,Activity,L1210 [18],Active
same,Activity,[31],-23%
same,LCK,MC-38 [32],2.3
same,inhibition in vivo at 0.25 mg/kg,[33],98%
same,LCK,[34],2
same,Activity,[35],-21%
same,inhibition in vivo at 0.2 mg/kg,[36],98%
same,LCK,[37],1.9
same,inhibition in vivo at 0.16 mg/kg,[38],93%
same,LCK,[39],1.5
same,Activity,[40],-19%
same,Activity,SK-OV-3 [41],-3%
same,inhibition in vivo at 0.13 mg/kg,SK-OV-3 [42],52%
same,Activity,L1210 [2],Active
same,Activity,L1210 [3],Active
same,Activity,L1210 [20],Active
same,Activity,L1210 [21],Active
COc1cccc2c1C(=O)c1c(O)c3c(c(O)c1C2=O)C[C@@](O)(C(=O)CO)C[C@@H]3O[C@H]1C[C@H](N)[C@H](O)[C@H](C)O1 [DOXORUBICIN],IC50,L1210 [12],182 nM
same,Activity,L1210 [43],85%
same,Activity,L1210 [44],Active
same,inhibition in vivo at 8 mg/kg,[45],82%
same,LCK,[46],0.78
same,Activity,[47],-25%
same,Activity,SK-OV-3 [48],-4%
same,inhibition in vivo at 5 mg/kg,SK-OV-3 [49],39%
